Literature values as cited in article PMC4610388 (European journal of medicinal chemistry, 2015).

Assays:
[1] = tested on: mammalian dihydrofolate reductases
E. coli DHFR = E. coli DHFR (Escherichia coli, UniProt P0ABQ4); settings: previous study from the authors' lab
Sequence of E. coli DHFR (P0ABQ4 whole entry): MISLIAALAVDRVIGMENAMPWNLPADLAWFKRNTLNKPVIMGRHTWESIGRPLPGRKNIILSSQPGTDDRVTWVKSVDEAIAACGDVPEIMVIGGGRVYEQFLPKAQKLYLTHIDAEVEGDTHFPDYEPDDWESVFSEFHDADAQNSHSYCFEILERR

SMILES	inhibition of mammalian dihydrofolate reductases [1]	slow-onset tight binding behaviour (E. coli DHFR)
Nc1nnc(-c2cccc(Cl)c2Cl)c(N)n1 [Lamotrigine, 6-(2,3-dichlorophenyl)-1,2,4-triazine-3,5-diamine]	weakly inhibit	
Nc1nc(N)c2c(ccc3[nH]ccc32)n1 [NSC339578, 7H–pyrrolo [3,2-f] quinazoline-1,3-diamine]		does not show slow-onset of inhibition
